Laboratory results from patent US20240415804A1, “METHOD OF TREATING PANCREATIC CANCER” (University of South Florida, priority 2022, published 2024).

How the values were obtained:
SHIP-1 = conditions: API-treated OPC mice, previous findings (ref 12); cited from earlier work
Bcl-2 = assay: Western blot of Bcl-2 protein in UN-KC-6141 cells; assay type: cell-based, mouse; conditions: API 40 μM
Experimental: Single-cell suspensions of BM, digested pancreatic tumors cells and UN-KC-6141 cells treated with API (40 μM) were lysed with radioimmunoprecipitation buffer (Sigma-Aldrich), quantified with a BCA Protein Assay kit (Thermo Fisher Scientific, Waltham, MA, USA), resolved by SDS-PAGE (Thermo Fisher Scientific) and transferred onto a nitrocellulose membrane as previously described. Membranes were probed with either anti-SHIP-1 (Santa Cruz Biotechnology, Dallas, TX, USA), anti-iNOS (Cell Signaling Technology) or anti-Bcl-2 (Cell Signaling Technology, Danvers, MA, USA), all at a dilution of 1:1000. All blots were re-probed with a housekeeping protein, HRP-conjugated anti-β-actin (Sigma-Aldrich), at a dilution of 1:20,000. Membranes were then probed with the respective secondary anti-mouse or rabbit IgG HRP-conjugated antibodies (1:1000) of SHIP-1 and iNOS. Detection of SHIP-1, iNOS and β-actin proteins was performed using Super Signal West Pico or Femto Chemiluminescent Substrates (Thermo Fisher Scientific) and then imaged on a Bio-Rad Chemi Doc XRS Imaging System. Normalized densitometric ratios (divided by β-actin) were determined by quantifying WB results using Image J.

[1] = test system: CD8+ T cells and MHC-II+ cells; assay: AKOYA-CODEX imaging of tumor sections of KC-HPC mice; assay type: in vivo, mouse
Text: Next, the inventors examined the expression and infiltration of CD8^+ T cells and MHC-II^+ cells in the tumor sections of KC-HPC treated with vehicle or API and using AKOYA-CODEX which provides spatial capture of location and phenotype for multiple immune cells in the tumor. […] The inventors then observed, via 2D tSNE, increased CD8^+ T cell expression partially located within the tumor plots for the tumors of KC-HPC-API mice compared with vehicle treated KC-HPC mice (FIG. 15B). The poly-1-lysine coated coverslips containing 5-μm of Fresh Frozen (FF) tissue sections were stored at […] until use. At the staining time, FF tissue sections were baked for 30 min to 1 h at 55° C. According to Akoya Biosciences protocol, the FF tissues were dewaxed, deparaffinized in xylene then rehydrated in descending ethanol concentrations (100% twice, 90%, 70%, 50%, and 30%, respectively) and washed in ddH2O twice, each step for 5 min. Heat-induced epitope retrieval with antigen retrieval solution, pH 6, was performed using the pressure cooker at high-pressure protocol ([…]) for 20 min. After cooling at room temperature (RT) for 30 min to 1 h, the coverslips were washed in ddH2O twice for 2 min. […] The processed data were analyzed using the CODEX-MAV plugin in Image J. Then, nuclei segmentation was performed, followed by gating and clustering of the CD8+ T cells populations. […]

O=c1cc(-c2ccc(O)cc2)oc2cc(O)cc(O)c12 [API, 40,5,7-Trihydroxyflavone, 5,7-Dihydroxy-2-(4-hydroxyphenyl)-4-benzopyrone]
SHIP-1 gene expression in pancreatic tumor (SHIP-1): increased | SHIP-1 protein expression in pancreatic tumor (SHIP-1): increased | Bcl-2 protein expression (WB) (Bcl-2): significant decrease | MHC-II+ cells in tumor sections (2D UMAP) ([1]; API treated KC-HPC mice, non-detectable in KC-HPC mice): increase | CD8+ T cell expression in tumor sections (2D tSNE) ([1]; KC-HPC-API vs vehicle treated KC-HPC mice): increased
